Data set [1] can be described thus: Polymorphism screen of hydrochloride and benzoate salts: thermal cycling, evaporation, antisolvent addition, cooling (XRPD). In kind it is physicochemical. How it is done: Twenty five of the lyophilised samples were treated with solvent and thermally cycled between ambient and 40° C. with four hours spent under each condition. After three days and solids were isolated by centrifuge filtration and analysed by XRPD.
Twelve samples of the lyophilised material were treated with a minimal volume (ca 0.5 ml) of warm solvent, syringe filtered through a 0.22 µm filter and added to a clean HPLC vial and allowed to evaporate at RT. The solvents used and XRPD results following evaporation are detailed in the Table below:
Twelve samples of the lyophilised material were treated with a minimal volume (ca 0.5 ml) of warm solvent, syringe filtered through a 0.22 micrometre filter and added to a clean HPLC vial and allowed to evaporate at RT. The solvents used and XRPD results following evaporation are detailed in the Table below:
For antisolvent additions thirteen samples of the lyophilised material were dissolved in a small amount of hot solvent (^˜0.5 ml). […] A large excess of antisolvent was then added, the vials sealed. After storage at RT overnight, and samples where no solid had been produced were first cooled to 4° C. for ˜24 hrs, and again if no solid was produced, they were cooled to −18° C. Any solids were isolated by centrifuge filtration and analysed by XRPD.
For the cooling experiments twelve samples of the lyophilised material were dissolved in a small amount of hot solvent (^˜[…]) and syringe filtered through a 0.22 μm filter into a clean HPLC vial. Samples were allowed to cool to RT, and if no solid was produced to 4° C. and then to −18° C. Solids were isolated by centrifuge filtration and analysed by XRPD.

Data set [2] can be described thus: Solubility assessment in four different media. In kind it is physicochemical. Particulars: four media: SNF, pH 1.2, pH 4.5 and pH 6.8 media, 37 °C, aqueous buffer, thermodynamic from solid; four different media. How it is done: Solubility assessments of 5-MeO-DMT oxalate, hydrobromide fumarate and benzoate were performed in four different media: […]
Data set [3] can be described thus: Dynamic Vapor Sorption (DVS), salt screen and scale-up salts. In kind it is physicochemical. The note with it: for hygroscopicity class: DVS; for hygroscopicity class / moisture absorption at 70% RH / moisture absorption at 80% RH / water uptake up to 60% RH / deliquescence during DVS: 25° C.; for moisture absorption at 70% RH / moisture absorption at 80% RH / water uptake up to 60% RH: first sorption isotherm; for deliquescence during DVS: high RH. How it is done:
Dynamic Vapor Sorption (DVS)
DVS analyses were performed on TA Instrument DVS Q5000. Samples were added to a pre-tared metallised quartz crucible and run at 25° C. from 40% RH to 90% RH, down to zero and back to 40%. This cycle was repeated in increments of 10% RH.

Data set [4] is classed as physicochemical. Particulars: 40° C./75% RH, three days. The procedure:
Physical Stability of Salts
Physical stability stress tests were conducted on generated crystalline salts at controlled temperature and relative humidity. The powder samples were stored at 40° C./75% RH for three days. After this time samples were analysed by XRPD to see whether the physical state of salts changed during the storage.

Data set [5] is described as follows: Thermo-Gravimetric Analysis (TGA), thermal stability. Particulars: for thermal stability up to (TGA): nitrogen. The procedure: Thermo—Gravimetric Analysis (TGA)
TGA thermograms were obtained with a TA Instrument Discovery 550 in Al pans. The heating rate used was 10° C./min linear ramp from 25 to 400° C. with a nitrogen purging at a rate of 60 ml/min. TGA thermograms were analysed using TRIOS software.

Data set [6] in a line: DVS double-cycle experiment (Example 3). In kind it is physicochemical.
A short description of data set [7]: Storage at 40° C./75% RH and 25° C./97% RH for 7 days, XRPD and HPLC (Example 3). In kind it is physicochemical. The procedure:
FIG. 128. XRPD diffractogram overlay of 5-MeO-DMT Phosphate Pattern 1 before and after storage at 25° C./97% RH and 40° C./75% RH for 7 days.
FIG. 139. XRPD diffractogram overlay of 5-MeO-DMT Tartrate Pattern 1 before and after storage at 25° C./97% RH and 40° C./75% RH for 7 days.
The sample is classed as slightly hygroscopic with a total reversible mass change of 0.3 wt. % between 0-90% RH. The DVS isotherm and DVS kinetic plot can be seen in FIGS. 124 and 125, respectively. The solid form was unchanged after a double-cycle experiment, the XRPD analysis confirming this can be seen in FIG. 126.
The sample is classed as slightly hygroscopic with a total reversible mass change of 0.6 wt. % between 0-90% RH (FIG. 135). The solid-form was unchanged after the double-cycle experiment (FIG. 136).

Where a name gives a salt, the structure may show the parent alone.

A word on the solubility: it is the dissolved amount per volume that the medium holds. Read a high solubility as much dissolved substance.

For the molecule `COc1ccc2[nH]cc(CCN(C)C)c2c1.O=C(O)c1ccccc1` [benzoate salt, 5-MeO-DMT benzoate], the “XRPD Result” value was “Oil” in data set [1] (evaporation at RT of lyophilised benzoate salt from 1-PrOH (DJP2202-010-02)); “Oil” in data set [1] (evaporation at RT of lyophilised benzoate salt from EtOH (DJP2202-010-05)); “Pattern 4” in data set [1] (evaporation at RT of lyophilised benzoate salt from IPA (DJP2202-010-06)); “Pattern 2” in data set [1] (evaporation at RT of lyophilised benzoate salt from IPAc (DJP2202-010-10)); “Pattern 4” in data set [1] (evaporation at RT of lyophilised benzoate salt from MEK (DJP2202-010-11)); “Oil” in data set [1] (evaporation at RT of lyophilised benzoate salt from MIBK (DJP2202-010-04)). Besides, the “XRPD Result” value in data set [1] (evaporation at RT of lyophilised benzoate salt from MeCN (DJP2202-010-12)), in data set [1] (evaporation at RT of lyophilised benzoate salt from THF (DJP2202-010-07)), in data set [1] (evaporation at RT of lyophilised benzoate salt from chlorobenzene (DJP2202-010-09)) and in data set [1] (evaporation at RT of lyophilised benzoate salt from dioxane (DJP2202-010-08)) was “Pattern 4” each time. In data set [2], this molecule came in with a solubility not below 100 mg/mL.

On to `COc1ccc2[nH]cc(CCN(C)C)c2c1` [Tosylate salt, 5-MeO-DMT tosylate], for which, in data set [3], the “change of crystalline form during the DVS experiment (DVS / post-DVS XRPD)” value (shortened to “change … (DVS / post-DVS XRPD)”) is “did not undergo any solid-state changes”; the hygroscopicity class entry was “slightly hygroscopic (Pharmaceuticals that pick up between 0.2% and 2.0% moisture at 80% RH are considered slightly hygroscopic)”. In data set [4], the “crystalline form after storage (XRPD)” value is reported as “identical XRPD pattern as the input material”.

Regarding `COc1ccc2[nH]cc(CCN(C)C)c2c1` [Tartrate salt, 5-MeO-DMT tartrate], in data set [3], the “change … (DVS / post-DVS XRPD)” value is listed as “did not undergo any solid form transformation”; the hygroscopicity class entry is “moderately hygroscopic (Pharmaceuticals that pick up between 2.0% and 15.0% moisture at 80% RH are considered moderately hygroscopic)”. The hygroscopicity class entry in data set [3] (listed as tartrate salt) was “moderately hygroscopic (Pharmaceuticals that pick up between 2.0% and 15.0% moisture at 80% RH are considered moderately hygroscopic)”. Moreover, the “crystalline form after storage (XRPD)” value in data set [4] is on record as “No change in the crystalline form”. Moreover, the “thermal stability up to (TGA)” value in data set [5] (10° C./min) was “around 170 °C”.

Take `COc1ccc2[nH]cc(CCN(C)C)c2c1` [Benzenesulfonate salt, 5-MeO-DMT benzenesulfonate]: in data set [3], the “moisture absorption at 70% RH” value is 7 % w/w, the “moisture absorption at 80% RH” value is 14 % w/w, the “water uptake up to 60% RH” value was found to be 1.2 % w/w and the “deliquescence during DVS” value is “begins to deliquesce”. The “thermal stability up to (TGA)” value in data set [5] (10° C./min) was found to be 250 °C.

Consider `COc1ccc2[nH]cc(CCN(C)C)c2c1.O=P(O)(O)O` [DR-2186-48-01], for which the “GVS hygroscopicity class (European Pharmacopeia definitions)” value in data set [6] was “slightly hygroscopic (based on European Pharmacopeia (Pharmaceuticals that pick up between 0.2% and 2.0% moisture at 80% RH are considered slightly hygroscopic)”. Further, the “GVS total mass change as mol eq. water” value in data set [6] (from 0-90% RH) is reported as 0.06 mol eq. water. The “GVS total mass change” value in data set [6] (from 0-90% RH, double cycle) worked out at 0.34 wt. %. Besides, the “Static Storage 7 days - 25° C./97% RH, XRPD” value in data set [7] (25° C./97% RH) is listed as “XRPD - PHO Pattern 1”. For the same molecule, the “Static Storage 7 days - 25° C./97% RH, HPLC” value in data set [7] (25° C./97% RH, HPLC purity) is reported as “HPLC - 98.0%”. Besides, the “Static Storage 7 days - 40° C./75% RH, XRPD” value in data set [7] (40° C./75% RH) is recorded as “XRPD - PHO Pattern 1”. Besides, the “Static Storage 7 days - 40° C./75% RH, HPLC” value in data set [7] (40° C./75% RH, HPLC purity) is “HPLC - 98.1%”. The TGA decomposition onset in data set [5] is 130-170 °C Decomposition onset from 180 °C. The “TGA further mass lost during the melt” value in data set [5] (130-170° C.) was “further 0.95% (0.1 mol eq. MeOH) was lost during the melt,”. For the same molecule, the TGA mass loss in data set [5] (from 40-125° C.) is 0.4 wt. % (0.04 mol. eq. MeOH) mass loss from 40-125 °C A.

For `COc1ccc2[nH]cc(CCN(C)C)c2c1.O=C(O)CC(O)C(=O)O` [Malate salt, 5-MeO-DMT malate], the “crystalline form after storage (XRPD)” value in data set [4] is listed as “conversion to a “gum” material”. In addition, the “thermal stability up to (TGA)” value in data set [5] (10° C./min) was “around 170 °C”.

In the case of `COc1ccc2[nH]cc(CCN(C)C)c2c1.Cl` [Hydrochloride pattern 2, 5-MeO-DMT hydrochloride], the “XRPD Result” value in data set [1] (hydrochloride salt, solid isolated after thermal cycle between ambient and 40° C., three days, solvent per experiment: -01 1,4-Dioxane, -02 1-Propanol, -03 2-Butanol, -05 2-Methyltetrahydrofuran, -06 2-Propanol, -07 Acetone, -08 Acetonitrile, -09 Anisole, -10 Chlorobenzene, -11 Ethanol, -12 Ethyl acetate, -13 Isopropyl acetate, -14 Methanol, -15 Propyl acetate, -16 Methylethyl ketone, -20 iso-Prop, listed as DJP2202-007-01, hydrochloride) is “Pattern 2”. Moreover, the “3-day Observations” value in data set [1] (hydrochloride salt, thermally cycled between ambient and 40° C., three days, solvent per experiment: -01 1,4-Dioxane, -02 1-Propanol, -03 2-Butanol, -04 2-Ethoxyethanol, -05 2-Methyltetrahydrofuran, -06 2-Propanol, -07 Acetone, -08 Acetonitrile, -09 Anisole, -10 Chlorobenzene, -11 Ethanol, -12 Ethyl acetate, -13 Isopropyl acetate, -14 Methanol, -15 Propyl acetate, -16 Methylethyl ketone, -17 Forma, listed as DJP2202-007-01, hydrochloride) is on record as “solid mass”. In data set [1] (thermal cycle of lyophilised hydrochloride salt (~40 mg), solvent added, solvent per experiment: -01 1,4-Dioxane, -02 1-Propanol, -03 2-Butanol, -04 2-Ethoxyethanol, -05 2-Methyltetrahydrofuran, -06 2-Propanol, -07 Acetone, -08 Acetonitrile, -09 Anisole, -10 Chlorobenzene, -11 Ethanol, -12 Ethyl acetate, -13 Isopropyl acetate, -14 Methanol, -15 Propyl acetate, -16 Methylethyl ketone, -17 Formamide, listed as DJP2202-007-01, hydrochloride), the “Initial Observations” value is recorded as “no change”. The “start of decomposition / complete mass loss (TGA)” value in data set [5] (10° C./min, hydrochloride) was “around 256 °C”.

On to `COc1ccc2[nH]cc(CCN(C)C)c2c1.Cl` [hydrochloride salt, 5-MeO-DMT hydrochloride], for which the “XRPD Results” value is reported as “Pattern 1” in data set [1] (evaporation at RT of lyophilised hydrochloride salt from 1-PrOH (DJP2202-011-02)); “Pattern 1” in data set [1] (evaporation at RT of lyophilised hydrochloride salt from EtOH (DJP2202-011-05)); “Pattern 1” in data set [1] (evaporation at RT of lyophilised hydrochloride salt from IPA (DJP2202-011-06)); “Pattern 1” in data set [1] (evaporation at RT of lyophilised hydrochloride salt from MEK (DJP2202-011-11)); “Oil” in data set [1] (evaporation at RT of lyophilised hydrochloride salt from MeCN (DJP2202-011-12)). In addition, the “thermal stability up to (TGA)” value in data set [5] (10° C./min) was approximately 235 °C.

On to `COc1ccc2[nH]cc(CCN(C)C)c2c1` [Phosphate salt, 5-MeO-DMT phosphate], for which the “change … (DVS / post-DVS XRPD)” value in data set [3] is on record as “no evidence of form change”. For the same molecule, in data set [4], the “crystalline form after storage (XRPD)” value was “did not undergo any transformation”.

Turning to `COc1ccc2[nH]cc(CCN(C)C)c2c1` [Phosphate Pattern 1, 5-MeO-DMT phosphate], the “total reversible mass change between 0-90% RH” value in data set [6] (DVS) was 0.3 wt. %.

With `COc1ccc2[nH]cc(CCN(C)C)c2c1` [glycolate salt, 5-MeO-DMT glycolate], in data set [3], the “moisture absorption at 70% RH” value was 11 % w/w, the “moisture absorption at 80% RH” value is 33 % w/w, the “water uptake up to 60% RH” value is 2.3 % w/w and the “deliquescence during DVS” value was “begins to deliquesce”. Further, the “thermal stability up to (TGA)” value in data set [5] (10° C./min) is “around 155 °C”.

Source of the values: patent US11773063B1, “Pharmaceutically acceptable salts and compositions thereof” (priority 2022, dated 2023).
